The source of these data is patent US20060078961A1, “Systems and methods for rapidly changing the solution environment around sensors” (priority 2002, published 2006).

In this assay the test system is PC-12 cell. The settings on record: flow rate 3.24 mm/s, scanning speed 250 μm/s. An excerpt:
The flow rate was 3.24 mm/s and the cell scanning speed was 250 μm/s.
The width of each channel is 100 μm, the thickness is 50 μm, and the interchannel spacing is 25 μm. The procedure used for fabricating the microchannels and for patch clamping are identical to that described in Example 2 (see above). The patch clamped cell used was a PC-12 cell, which was placed between 10 to 20 micrometers away from the outlets of the microchannels. Channels 1, 3, 5 and 7 were filled with PBS buffer, while channels 2, 4 and 6 were filled with acetylcholine. The flow rate of the fluid streams was 6.8 mm/s.
The channel structure and experimental setup used in Example 3 can be used to carry out dose-response measurements, in which the concentrations of the ligands in each of the ligand streams differ by predetermined amounts. […] In this 7-channel structure, channels 1, 3, 5 and 7 were filled with PBS buffer, whereas channels 2, 4, and 6 were filled with 1 μM, 12 μM, and 200 μM nicotine, respectively. The flow rate used was 3.24 mm/s and the cell-scanning speed was 250 μm/s. The patch-clamped cell was placed between 10 to 20 μm away from the outlet of the microchannel.

As to `CN1CCCC1c1cccnc1` (stereo not drawn) [nicotine], the Whole-cell current response entry (1 μM nicotine) was “barely discernible”. Also, for the setting “12 μM nicotine”, the Whole-cell current peak result was “detected with good signal-to-noise ratio”. Moreover, the “Current peak at 200 μM relative to peak for 12 μM” value (200 μM vs 12 μM nicotine) was 15 to 20 times.
